What was measured:
[1] = tested on: COX-2-positive BxPC3 cells; assay: Cell uptake of [18F]FMTP in COX-2-positive BxPC3 cells, with blocking; format: cell-based, human
[2] = tested on: COX-2; settings: cited from earlier work
[3] = tested on: COX-2; settings: baboon brain; cited from earlier work
[4] = molecular target: T1, COX-2 (Homo sapiens, UniProt P35354); settings: cited from earlier work
T1 sequence (P35354 18-604): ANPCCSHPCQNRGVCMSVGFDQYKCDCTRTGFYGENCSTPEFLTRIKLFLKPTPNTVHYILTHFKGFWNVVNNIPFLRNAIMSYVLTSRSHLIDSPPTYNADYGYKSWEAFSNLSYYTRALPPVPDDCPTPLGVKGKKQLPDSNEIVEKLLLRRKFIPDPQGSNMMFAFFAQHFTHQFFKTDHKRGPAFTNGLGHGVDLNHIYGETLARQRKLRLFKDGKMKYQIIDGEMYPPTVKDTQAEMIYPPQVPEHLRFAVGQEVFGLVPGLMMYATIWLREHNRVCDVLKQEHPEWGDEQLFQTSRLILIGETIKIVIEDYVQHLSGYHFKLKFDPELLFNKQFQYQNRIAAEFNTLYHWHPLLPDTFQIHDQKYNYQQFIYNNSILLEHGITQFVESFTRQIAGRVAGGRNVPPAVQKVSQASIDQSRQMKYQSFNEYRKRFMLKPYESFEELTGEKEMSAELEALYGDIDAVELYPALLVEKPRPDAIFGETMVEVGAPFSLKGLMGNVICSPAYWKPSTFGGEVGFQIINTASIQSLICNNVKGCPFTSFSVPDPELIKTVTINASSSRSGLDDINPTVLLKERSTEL

[5] = tested on: COX-2-negative PANC-1 cells; assay: Cell uptake of [18F]FMTP in COX-2-negative PANC-1 cells, with blocking; format: cell-based, human
Method: (§1) The radiochemical synthesis of [^18F]FMTP and [^18F]FMPP were optimized using a chlorine-to-fluorine displacement method, by reacting ^18F-fluoride/K222/K2CO3 with the corresponding chlorine precursor molecules. […] Dynamic microPET image acquisition was performed in anesthetized nude mice, LPS-induced neuroinflammation mice, and PBS-administered control mice using […].
BxPC3 and PANC-1 human pancreas carcinoma cell lines were plated on a 24-well plate at 2×10^5 cells/well. After 48 hours, [^18F]FMTP was added (2.0 μCi/mL) to the cell medium for 30 minutes. […] After incubation with [^18F]FMTP, cells were washed 4 times with cold PBS, lysed with 0.1 N NaOH, and counted in a gamma counter (Hidex AMG, LabLogic, Tampa, Fla.).
Proof-of-concept and selectivity of [^18F]FMTP binding to COX-2 was examined by evaluating the tracer uptake in COX-2-positive BxPC3 and a control COX-2-negative PANC1 human pancreatic carcinoma cell lines. FIG. 2 illustrates a >2-fold uptake of [^18F]FMTP in BxPC3 cells compared with PANC1 cells. Values shown in FIG. 2 are the mean±standard deviation (“SD”) from four independent experiments.

[6] = Dynamic microPET imaging of [18F]FMTP in normal mice; format: in vivo
Method: as §1
Animals (male white mice) were anesthetized with isoflurane (l %-2% isoflurane in 100% oxygen) using a nose cone, and a 29-gauge needle connected to a catheter was placed into the lateral tail vein. For neuroinflammation, mice were stereotactically injected with 5 μg of LPS or PBS (controls) in the brain and imaging experiments conducted 24 hours later. The animal was placed in prone position on the platform of the scanner and moved into the center of the field of view guided by laser beam calibration. Immediately after scan start, [^18F]FMTP (˜2.5 MBq […] in 20% ethanol-saline solution) was injected through the tail-vein catheter manually. The error caused by the injector and catheter was corrected by subtracting the remaining dose. 40-minute dynamic imaging was acquired on a microPET scanner (Siemens Inveon). The acquired list-mode data were reconstructed with 3D ordered subset expectation maximization (OSEM) algorithm using the software of Siemens Inveon Acquisition Workplace with a framing protocol of 2×30 seconds, 4×60 seconds, 3×120 seconds, 3×180 seconds, and 4×300 seconds. Using PMOD software (version 4.0, Switzerland), three-dimensional ellipsoid volume of interests (“VOIs”) ranging from 2-to-6 mm were placed manually at the center of the brain, heart (blood-pool), liver, proximal humerus (bone), and posterior cervical muscle. The standardized uptake values (“SUVs”) were estimated using a calibration factor calculated from the phantom study and time activity curves (“TACs”) were derived from VOIs in the series of reconstructed images.
FIGS. 3A-3D show the summed early frames (0-10 minute) and total frames (0-40 minute) of microPET images. Crosses in FIGS. 3A-3D represent the region with brain. […] TACs also indicated an initial rapid influx of radioactivity followed by rapid washout (FIG. 4). The uptake of [^18F]FMTP peaked around 1 minute in heart and brain, and then decreased rapidly. The absence of retention of [^18F]FMTP activity in these organs was predicted due to low COX-2 expression in normal mouse brain. Highest radioactivity outside the heart was found in liver, and the delay to peak at 5-10 minutes was probably due to the accumulation of radioactive metabolite(s). […] The binding of [^18F]FMTP in LPS-induced neuroinflammation in mice was studied in comparison to vehicle (PBS)-treated-mice. Intracranial injection of LPS in mice is known to generate COX-2 induction and neuroinflammation after around 24 hours. Therefore, PET imaging of LPS treated mice was performed after 24 hours with [^18F]FMTP, and an approximately 2-fold increase of tracer binding was found in brain compared with PBS-treated mice (FIG. 5). […] MicroPET data correlated with autoradiography performed in brain sections of microPET imaged animals using [^18F]FMTP.

[7] = molecular target: T2, COX-2 (Mus musculus, UniProt Q05769); assay: MicroPET imaging of [18F]FMTP in LPS-induced neuroinflammation mice vs PBS-treated mice; format: in vivo; settings: 24 hours after intracranial 5 μg LPS (FIG. 5)
T2 construct: from tissue; host or cells: brain of living male white mice, LPS- or PBS-injected
T2 sequence (Q05769 18-604): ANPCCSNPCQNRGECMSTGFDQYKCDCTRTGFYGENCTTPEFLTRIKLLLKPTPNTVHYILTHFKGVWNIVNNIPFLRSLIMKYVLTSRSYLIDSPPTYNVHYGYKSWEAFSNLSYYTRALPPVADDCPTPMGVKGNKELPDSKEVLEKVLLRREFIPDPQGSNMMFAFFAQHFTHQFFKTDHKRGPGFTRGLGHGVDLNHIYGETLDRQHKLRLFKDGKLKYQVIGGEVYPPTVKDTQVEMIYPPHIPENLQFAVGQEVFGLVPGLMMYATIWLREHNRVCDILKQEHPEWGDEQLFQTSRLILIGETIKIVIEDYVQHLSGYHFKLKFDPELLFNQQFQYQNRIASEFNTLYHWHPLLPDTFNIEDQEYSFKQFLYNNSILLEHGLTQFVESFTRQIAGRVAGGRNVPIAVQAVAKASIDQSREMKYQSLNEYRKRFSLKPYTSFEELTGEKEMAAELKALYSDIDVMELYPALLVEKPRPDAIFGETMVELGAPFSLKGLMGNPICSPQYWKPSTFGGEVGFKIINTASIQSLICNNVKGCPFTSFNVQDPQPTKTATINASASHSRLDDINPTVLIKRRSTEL
Method: as §1
Animals (male white mice) were anesthetized with isoflurane (l %-2% isoflurane in 100% oxygen) using a nose cone, and a 29-gauge needle connected to a catheter was placed into the lateral tail vein. For neuroinflammation, mice were stereotactically injected with 5 μg of LPS or PBS (controls) in the brain and imaging experiments conducted 24 hours later. […] The standardized uptake values (“SUVs”) were estimated using a calibration factor calculated from the phantom study and time activity curves (“TACs”) were derived from VOIs in the series of reconstructed images.
FIGS. 3A-3D show the summed early frames (0-10 minute) and total frames (0-40 minute) of microPET images. […] TACs also indicated an initial rapid influx of radioactivity followed by rapid washout (FIG. 4). […] Highest radioactivity outside the heart was found in liver, and the delay to peak at 5-10 minutes was probably due to the accumulation of radioactive metabolite(s). […]

[8] = tested on: xenografts; settings: cited from earlier work

## CS(=O)(=O)c1ccc(-c2nc(F)cc(NCc3nccs3)n2)cc1 [FMTP]
[1]; blocker 5 μM added 30 minutes before [18F]FMTP
  blocking of [18F]FMTP binding in BxPC3 cells: substantially blocked

## COc1cc(NCc2cccs2)nc(-c2ccc(S(C)(=O)=O)cc2)n1 [MC1]
[2]; cold (non-radiolabeled) MC1
  specific binding in CNS and periphery organs: no specific binding

## CS(=O)(=O)c1ccc(-c2nc(NCc3cccs3)cc(O[11CH3])n2)cc1 [[^11C]MC1, [^11C]-6-methoxy-2-(4-(methylsulfonyl)phenyl)-N-(thiophen-2-ylmethyl)pyrimidin-4-amine]
[2]; animal models of neuroinflammation
  binding to COX-2 in neuroinflammation: increased binding to COX-2
[2]; conditions without inflammation
  detection of constitutive or low level COX-2 in brain: failed to detect

## CS(=O)(=O)c1ccc(-c2noc(C(F)(F)F)c2-c2ccccc2)cc1 [[^11C]TMI, [^11C]-3-(4-methylsulfonylphenyl)-4-phenyl-5-trifluoromethyl isoxazole]
[3]
  blocking of constitutive COX-2 level in brain: partial blocking

## CS(=O)(=O)c1ccc(-c2nc(F)cc(NCc3nccs3)n2)cc1 [[^18F]FMTP, [^18F]-6-fluoro-2-(4-(methylsulfonyl)phenyl)-N-(thiazol-2-ylmethyl)pyrimidin-4-amine]
[4]
  IC50: 2.5 nM

## CS(=O)(=O)c1ccc(-c2nc([18F])cc(NCc3nccs3)n2)cc1 [[^18F]FMTP, [^18F]-6-fluoro-2-(4-(methylsulfonyl)phenyl)-N-(thiazol-2-ylmethyl)pyrimidin-4-amine]
[1]; 2.0 μCi/mL, 30 minutes, mean of four independent experiments (FIG. 2)
  uptake of [18F]FMTP in BxPC3 cells compared with PANC1 cells: > 2 fold
[5]; 2.0 μCi/mL, 30 minutes
  binding to PANC1 cells: negligible binding
[5]; blockers 5 μM
  specific binding in PANC1 cells with FMTP or celecoxib block: no specific binding
[6]; microPET
  uptake in spine and skeleton (de[18F]fluorination): did not show uptake in spine and skeleton
[6]; microPET, 0-40 minute
  washout of activity from brain: fast washout
[6]; microPET, tail-vein injection
  BBB penetration: penetrated the BBB
[6]; time activity curves (FIG. 4)
  time of peak uptake in heart and brain: around 1 minute
[6]; time activity curves, delay ascribed to radioactive metabolite(s)
  time of peak radioactivity in liver: 5 to 10 min
[7]
  increase of tracer binding in brain of LPS-treated compared with PBS-treated mice: approximately 2 fold

## CS(=O)(=O)c1ccc(-c2cc(C(F)(F)F)nc(NCc3ccc([18F])cc3)n2)cc1 [[^18F]Pyricoxib]
[8]
  binding in xenografts in vivo: only modest binding
[8]; in vivo
  uptake in brain: did not show significant uptake in brain
